This experiment relates to HOP-62 multicell spheroids with HUVEC/MSC, viability. The experiment can be described thus: Anticancer human tumor HOP-62 cell line growth inhibition [KRAS2].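 For all read-outs here: viability read after a week of compound exposure.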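 For viability, T/C: 100% = DMSO vehicle-treated spheroids.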 The settings on record: for viability, T/C: stronger effect = lower value. Summed up:
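KRAS-mutant tumor cells were grown as spheroids with HUVEC endothelial cells and human MSCs as stroma. Targeted agents were tested alone and with KRAS pathway inhibitors. Doses started at or near clinical Cmax, or 10 microM, descending half-log.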

The mark [1] stands for this setting: curve of first compound, second compound 0.1 µM.
Setting [2] is: curve of first compound, second compound 0.316 µM.
The mark [3] stands for this setting: curve of first compound, second compound 1 µM.
[4] abbreviates: curve of first compound, second compound 3.16 µM.
Where [5] appears, read: curve of first compound, second compound 10 µM.
[6] abbreviates: second compound 0.1 µM, first compound 0.01 µM.
The mark [7] stands for this setting: second compound 0.1 µM, first compound 0.0316 µM.
The mark [8] stands for this setting: second compound 0.1 µM, first compound 0.1 µM.
[9] abbreviates: second compound 0.1 µM, first compound 0.316 µM.
Setting [10] is: second compound 0.1 µM, first compound 1 µM.
[11] abbreviates: second compound 0.1 µM, first compound 3.16 µM.
Setting [12] is: second compound 0.316 µM, first compound 0.01 µM.
Setting [13] is: second compound 0.316 µM, first compound 0.0316 µM.
Where [14] appears, read: second compound 0.316 µM, first compound 0.1 µM.
[15] abbreviates: second compound 0.316 µM, first compound 0.316 µM.
The mark [16] stands for this setting: second compound 0.316 µM, first compound 1 µM.
Where [17] appears, read: second compound 0.316 µM, first compound 3.16 µM.
Where [18] appears, read: second compound 1 µM, first compound 0.01 µM.
Setting [19] is: second compound 1 µM, first compound 0.0316 µM.
Setting [20] is: second compound 1 µM, first compound 0.1 µM.
[21] abbreviates: second compound 1 µM, first compound 0.316 µM.
The mark [22] stands for this setting: second compound 1 µM, first compound 1 µM.
Setting [23] is: second compound 1 µM, first compound 3.16 µM.
[24] abbreviates: second compound 3.16 µM, first compound 0.01 µM.
Where [25] appears, read: second compound 3.16 µM, first compound 0.0316 µM.
[26] abbreviates: second compound 3.16 µM, first compound 0.1 µM.
The mark [27] stands for this setting: second compound 3.16 µM, first compound 0.316 µM.
[28] abbreviates: second compound 3.16 µM, first compound 1 µM.
The mark [29] stands for this setting: second compound 3.16 µM, first compound 3.16 µM.
Where [30] appears, read: second compound 10 µM, first compound 0.01 µM.
[31] abbreviates: second compound 10 µM, first compound 0.0316 µM.
Where [32] appears, read: second compound 10 µM, first compound 0.1 µM.
[33] abbreviates: second compound 10 µM, first compound 0.316 µM.
Setting [34] is: second compound 10 µM, first compound 1 µM.

Values joined by “and” are separate entries in the source; they are usually repeats but may differ in a detail not shown here. Equal entries are not always repeated.

The term IC50 denotes the concentration that inhibits the measured activity by half. A word on the viability, T/C: it is the result in the treated group divided by that in the control group, in per cent. `CC1COCCN1c1cc(-c2ccnn2C)c2ccnc(-c3ccn[nH]3)c2n1` (stereo unspecified) + CNCc1ccccc1-c1csc(C(C)Nc2nc(C)nc3cc(OC)c(OC)cc23)c1: the IC50 under setting [1] is 54.9 nM; the IC50 under setting [2] is 61.1 nM; the IC50 under setting [3] came to 36.9 nM; the IC50 under setting [4] is less than 10 nM; the IC50 under setting [5] was less than 10 nM. For the same compound, the viability, T/C under setting [6] is 106%; the viability, T/C under setting [7] is 73.1%; the viability, T/C under setting [8] is 25.3%; the viability, T/C under setting [9] was 13.5%; the viability, T/C under setting [10] was 14%; the viability, T/C under setting [11] was 16.4%. Further, the viability, T/C under setting [12] is 106%; the viability, T/C under setting [13] is 78.8%; the viability, T/C under setting [14] was 28.7%; the viability, T/C under setting [15] is 14.2%; the viability, T/C under setting [16] was 15.2%; the viability, T/C under setting [17] was 14.3%. Also, the viability, T/C reads like this: under setting [18], 94.9%; under setting [19], 53.9%; under setting [20], 25.2%; under setting [21], 17.4%; under setting [22], 14.7%; under setting [23], 12.8%. In addition, the viability, T/C is 3.68% under setting [24]; 0.24% under setting [25]; 2.16% under setting [26]; 0.06% under setting [27]; 0.06% under setting [28]; 0.27% under setting [29]. The viability, T/C reads like this: under setting [30], 0.1%; under setting [31], 0.64%; under setting [32], 0.08%; under setting [33], 0.09%; under setting [34], 0.58%; (second compound 10 µM, first compound 3.16 µM) 0.16%.
Turning to `CC1COCCN1c1cc(-c2ccnn2C)c2ccnc(-c3ccn[nH]3)c2n1` (stereo unspecified), the viability, T/C was 16.9% [middle of 5 runs] (compound 0.316 µM), 16.8% [middle of 5 runs] (compound 1 µM) and 17.2% [middle of 5 runs] (compound 3.16 µM).
For the compound `CCN1CCN(Cc2ccc(Nc3ncc(F)c(-c4cc(F)c5nc(C)n(C(C)C)c5c4)n3)nc2)CC1` + CNCc1ccccc1-c1csc(C(C)Nc2nc(C)nc3cc(OC)c(OC)cc23)c1, the IC50 was more than 1000 nM under setting [1]; more than 1000 nM under setting [2]; 257 nM under setting [3]; less than 3.16 nM under setting [4]; less than 3.16 nM under setting [5]. The viability, T/C is 102% (second compound 0.1 µM, first compound 0.00316 µM); 112% under setting [6]; 95.3% under setting [7]; 90.4% under setting [8]; 72.6% under setting [9]; 54.4% under setting [10]. Also, the viability, T/C is, setting by setting: (second compound 0.316 µM, first compound 0.00316 µM) 108%; under setting [12], 90.4%; under setting [13], 81.3%; under setting [14], 71%; under setting [15], 71.7%; under setting [16], 48.4%. Further, the viability, T/C runs as follows: (second compound 1 µM, first compound 0.00316 µM) 97%; under setting [18], 73.6%; under setting [19], 72.9%; under setting [20], 52.6%; under setting [21], 51.4%; under setting [22], 41.4%. For the same compound, the viability, T/C (second compound 3.16 µM, first compound 0.00316 µM) was 0.39%; the viability, T/C under setting [24] is 0.5%; the viability, T/C under setting [25] is 0.14%; the viability, T/C under setting [26] is 0.21%; the viability, T/C under setting [27] was 0.17%; the viability, T/C under setting [28] is 0.16%. The viability, T/C reads like this: (second compound 10 µM, first compound 0.00316 µM) 0.1%; under setting [30], 0.1%; under setting [31], 0.1%; under setting [32], 0.11%; under setting [33], 0.1%; under setting [34], 0.16%.
Regarding `CC1OCC2(CCN(c3cnc(Sc4ccnc(N)c4Cl)c(N)n3)CC2)C1N` (stereo unspecified), the viability, T/C is 103% (2×) and 77% (compound 0.0316 µM); 92.2% [middle of 19 runs] (compound 0.1 µM). The IC50 (compound alone, run of 07/12/2021) is 2.29 µM [middle of 6 runs]; the IC50 (curve of compound) is > 10000 nM and 3820 nM and 9820 nM.
For the compound `Cn1ncnc1[C@H]1c2n[nH]c(=O)c3cc(F)cc(c23)N[C@@H]1c1ccc(F)cc1`, the viability, T/C is, setting by setting: (compound 0.000316 µM) 105% [middle of 5 runs]; (compound 0.001 µM) 102% (2×) and 95.9% and 103% (2×); (compound 0.00316 µM) 103% [middle of 5 runs]; (compound 0.01 µM) 99.4% [middle of 5 runs]; (compound 0.0316 µM) 98% [middle of 5 runs]; (compound 0.1 µM) 85.3% [middle of 5 runs]. Besides, the IC50 (curve of compound) is more than 100 nM.
On to `C=CC(=O)N1CCN(c2nc(OCC3CCCN3C)nc3c2CCN(c2cccc4cccc(C)c24)C3)CC1CC#N` (stereo unspecified), for which the viability, T/C (compound 1 µM) was 35.5% [middle of 17 runs]. The IC50 (compound alone, run of 07/26/2021) is 622 nM [middle of 6 runs].
For `COc1cc2nccc(Oc3ccc(NC(=O)C4(C(=O)Nc5ccc(F)cc5)CC4)cc3)c2cc1OC` + C=CC(=O)N1CCN(c2nc(OCC3CCCN3C)nc3c2CCN(c2cccc4cccc(C)c24)C3)CC1CC#N, the IC50 is, setting by setting: (curve of first compound, second compound 0.0316 µM) 1910 nM; under setting [1], 1060 nM; under setting [2], 31.6 nM; under setting [3], less than 31.6 nM; under setting [4], less than 31.6 nM. Besides, the viability, T/C was 64.8% (second compound 0.0316 µM, first compound 0.0316 µM); 68.5% (second compound 0.0316 µM, first compound 0.1 µM); 64% (second compound 0.0316 µM, first compound 0.316 µM); 77.8% (second compound 0.0316 µM, first compound 1 µM); 35.4% (second compound 0.0316 µM, first compound 3.16 µM); 8.75% (second compound 0.0316 µM, first compound 10 µM). The viability, T/C is, setting by setting: under setting [7], 50.5%; under setting [8], 51.4%; under setting [9], 49.5%; under setting [10], 53.4%; under setting [11], 29%; (second compound 0.1 µM, first compound 10 µM) 12%. The viability, T/C under setting [13] was 42%; the viability, T/C under setting [14] is 38.5%; the viability, T/C under setting [15] is 47.9%; the viability, T/C under setting [16] is 53.8%; the viability, T/C under setting [17] is 24.9%; the viability, T/C (second compound 0.316 µM, first compound 10 µM) is 8.51%. For the same compound, the viability, T/C runs as follows: under setting [19], 27.4%; under setting [20], 31.1%; under setting [21], 25.3%; under setting [22], 30.6%; under setting [23], 19.9%; (second compound 1 µM, first compound 10 µM) 0.15%. Moreover, the viability, T/C is 0.14% under setting [25]; 0.75% under setting [26]; 0.15% under setting [27]; 0.37% under setting [28]; 0.13% under setting [29]; 0.23% (second compound 3.16 µM, first compound 10 µM).

For the origin of these results see PubChem BioAssay AID1963858 (Molecular Pharmacology Branch, DTP, NCI, 2024).
